According to US7033829B2, “Method to inhibit cell growth using oligonucleotides” (Trustees of Boston University, priority 2000, dated 2006):

Legend:
[1] = system: p53, PCNA and the XPA protein; experiment: Western blot of DNA repair proteins in keratinocytes; format: cell-based, human; details: within 2 days of treatment
Method: Cells were treated with 100 μM pTpT or an equal volume of diluent alone for 48 hours. Total cellular proteins were collected in a buffer consisting of 0.25 M Tris HCl (pH 7.5), 0.375 M NaCl, 2.5% sodium deoxycholate, 1% Triton X-100, 25 mM MgCl2, 1 mM phenylmethyl sulfonyl fluoride, and 0.1 mg ml aprotinin. Proteins (100 μg per sample) were separated by 7.5–15% SDS-PAGE and transferred to a nitrocellulose membrane (Schleicher & Schuell, Keene, N. H.). After transfer, the gel was stained with Coomassie Blue to verify even loading as visualized by the residual high molecular weight proteins. Membranes were blocked in 0.05% Tween-20/PBS with 5% milk, (Bio-Rad Laboratories, Hercules, Calif.). Antibody reactions were performed with the following antibodies: anti p53 (AB-6), anti PCNA (Ab-2) (Oncogene Science), and anti XPA (FL-273) (Santa Cruz Biotechnology). Sheep anti-mouse Ig linked to horseradish peroxidase (Amersham, Arlington Heights, Ill.) (for p53 and PCNA) and goat anti-rabbit IgG (Bio-Rad)(for XPA) were used as the secondary antibodies. Binding was detected by the ECL detection kit (Amersham).
Western blot analysis was used to examine the effect of pTpT treatment on the expression of selected genes known to be involved in DNA repair.

[2] = system: Cu/Zn superoxide dismutase; experiment: Cu/Zn superoxide dismutase mRNA in fibroblasts; format: cell-based; details: 48 and 72 hours after treatment
[3] = system: BP DNA adducts (CAT reporter plasmid) in H1299 cells; experiment: Repair of BP-damaged CAT reporter plasmid in H1299 cells; format: cell-based, human
Method: Preconfluent cultures of H1299 cells were transfected with an expression vector containing the wild type human p53 cDNA under the control of the human cytomegalovirus promoter/enhancer (Dr. Bert Vogelstein, Johns Hopkins Oncology Center). Control transfections were performed using the same vector lacking the p53 cDNA. Transfections were carried out as described previously.
The pCAT vector (Promega) was treated with benzo[a]pyrene-7,8-diol-9,10-epoxide (BP) as described (Athas et al. Cancer Res 1991) to produce less damaged and more damaged plasmids, previously shown to be instructive in studies examining different repair capacities in human cells. Based on the incorporation of ^3H-BPDE into the DNA, the less damaged plasmid contained 25 adducts per 5 kb plasmid and the more damaged plasmid contained 50 adducts. This non-replicating vector contains the chloramphenicol acetyltransferase gene under control of SV40 promoter and enhancer sequences. Human keratinocytes and p53-transfected H1299 cells were pre-treated with either 100 μM pTpT or an equal volume of diluent (DMEM) alone for 48 hours, then transfected with either BP-modified pCAT-control vector (0.5 μg/ml) or unmodified vector (0.5 μg/ml) together with PSV-β-galactosidase control vector (0.5 μg/ml). Cells were collected in a reporter lysis buffer (Promega) 24 hours after transfection. CAT enzyme activity was determined using the liquid scintillation counting protocol and components of the assay system kit (Promega). ^14C-labeled chloramphenicol[50–60 mCi(1.85–2.22 GBq)/mmol] was purchased from New England Nuclear (Boston, Mass.). CAT activity was normalized with β-galactosidase activity.
To confirm that pTpT enhances repair of BP-DNA adducts, at least in part, through p53 activation, p53-null H1299 cells were transfected with the p53 expression vector, and p53 protein expression was then confirmed by western blot analysis 48 hours after transfection.

[4] = system: GADD 45, ERCC 3 and SDI 1 mRNA; experiment: Northern blot of GADD 45, ERCC 3 and SDI 1 in SCC12F cells; format: cell-based, human; details: 100 μM; as early as 24 hours, several days
Method: Paired cultures of SCC12F cells were maintained in a Dulbecco's modified Eagle's Medium-based keratinocyte growth medium (DMEM; GIBCO/BRL, Gaithersburg, Md.) supplemented with 10% fetal calf serum (Hyclone Labs, Logan, Utah) and epidermal growth factor as described (Hollander, M. C. et al., J. Biol. Chem. 268:328–336 (1992)). Pre-confluent cultures were given fresh medium supplemented with either 100 μM T2, or an equal volume of diluent. Cells were collected daily after additions, and processed for total RNA isolation using the Tri-Reagent extraction method (Molecular Research Center, Cincinnati, Ohio) following the protocol of the manufacturer. Ten micrograms of RNA from each sample was gel electrophoresed, transferred to a nylon filter and probed as described previously (Nada, A. et al., Exp. Cell Res. 211:90–98 (1994)). The cDNA for GADD 45 was generated by PCR using primers based on the human GADD 45 gene sequence (Mitsudomi, T. et al., Oncogene 7:171–180 (1992)). The cDNA for ERCC 3 was purchased from the American Type Culture Collection (ATCC, Rockville, Md.). The SDI 1 cDNA was a gift of Dr. J. Smith and has been described previously (Walworth, N.C. and Bernards, R., Science 271:353–356 (1996)).

Substance: thymidine dinucleotide [pTpT]
- up-regulation of levels of p53, PCNA and XPA protein [1]: 2 to 3 fold
- increase of Cu/Zn superoxide dismutase mRNA levels [2]: greater than 3 fold
- plasmid repair efficiency versus diluent pre-treated cells ([3]; p53+ H1299 cells, high level of BP damage): more than three times as efficiently
- plasmid repaired more efficiently than in diluent pre-treated cells ([3]; p53+ H1299 cells, low level of BP damage): 80%±50%
- repair capacity versus diluent ([3]; p53- H1299 cells): the repair capacity was the same
- mRNAs for GADD 45, ERCC 3 and SDI 1 [4]: up-regulated
